The experiment can be described thus: Cytotoxicity against NCI60 cells. The experiment is classed as functional. The conditions noted are these: Homo sapiens.

In brackets after ≈: the same amount, converted by molar mass.

In the case of `C/C=C\[C@H](C)[C@H]1O[C@@]1(C)[C@@H](O)[C@H]1COC(=O)[C@H](O)[C@@H](OC)[C@H](C)C(=O)[C@H](C)[C@@H](O)/C(C)=C/[C@H](C)C(=O)CC[C@@H](C)C1=O`, the concentration for 50% growth inhibition (GI50) was found to be 0.09 ng/mL (≈ 0.000151 µM).
For the compound `C/C=C\[C@H](C)[C@H]1OC1(C)[C@@H](O)[C@H]1COC(=O)[C@H](O)[C@@H](OC)[C@H](C)C(=O)[C@H](C)[C@@H](OC(C)=O)/C(C)=C/[C@H](C)C(=O)C[C@H](O)[C@@](O)(CO)C1=O` (single isomer, unassigned), the GI50 worked out at 42 ng/mL (≈ 0.0613 µM).

For the origin of these results see ChEMBL document CHEMBL1145414, “Candidaspongiolides, distinctive analogues of tedanolide from sponges of the genus Candidaspongia” (2007).
